Results taken from patent US8912329B2 (priority 2009, dated 2014).

Legend:
[1] = system: Mycobacterium tuberculosis laboratory strain H37Rv; test: Growth inhibition / drug susceptibility testing of M. tuberculosis with MGIT 960 system, compounds combined with ethionamide; format: cell-based; parameters: key to growth inhibition of M. tuberculosis H37Rv (R/I/S): R: Resistance, no effect of combinatorial drug application; I: intermediate; S: sensitive
[2] = 250 mg oral; cited from earlier work
EthR-VP16 = EthR-VP16 (Mycobacterium bovis, UniProt Q7TVI1); test: cell-based; parameters: species or system M. bovis; conditions: 48 h, read-out: % EthR activity (w/o = 100%); ± std. dev. of the mean (n = 3)
Chain of EthR-VP16 (Q7TVI1 whole entry, looked up): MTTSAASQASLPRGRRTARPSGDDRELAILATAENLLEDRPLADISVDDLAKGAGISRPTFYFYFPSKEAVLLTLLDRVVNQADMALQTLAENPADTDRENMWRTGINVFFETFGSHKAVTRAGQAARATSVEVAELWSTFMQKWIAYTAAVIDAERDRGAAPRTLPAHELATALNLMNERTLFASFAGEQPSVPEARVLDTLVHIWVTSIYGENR

CCc1cc(C(N)=S)ccn1 [Ethionamide, 2-ethylthioiso-nicotinamide, reference compound]
growth inhibition of M. tuberculosis H37Rv (R/I/S) ([1]; ethionamide 0.16 μg/ml alone (Example compound 0 μM)): R
growth inhibition of M. tuberculosis H37Rv (R/I/S) ([1]; ethionamide 0.31 μg/ml alone (Example compound 0 μM)): R
growth inhibition of M. tuberculosis H37Rv (R/I/S) ([1]; ethionamide 0.625 μg/ml alone (Example compound 0 μM)): R
growth inhibition of M. tuberculosis H37Rv (R/I/S) ([1]; ethionamide 1.25 μg/ml alone (Example compound 0 μM)): R
growth inhibition of M. tuberculosis H37Rv (R/I/S) ([1]; ethionamide 2.5 μg/ml alone (Example compound 0 μM)): I
growth inhibition of M. tuberculosis H37Rv (R/I/S) ([1]; ethionamide 5 μg/ml alone (Example compound 0 μM)): S
cmax [2]: 2 µg/mL
t1/2 [2]: 2 h

O=C(COc1ccc(F)cc1)N1CCC(c2ccccc2)C1 (centres unmarked) [Example 15, 2-(4-Fluorophenoxy)-1-(3-phenylpyrrolidin-1-yl)ethan-1-one]
growth inhibition of M. tuberculosis H37Rv (R/I/S) ([1]; Example compound 0.5 μM + ethionamide 0.16 μg/ml): R
growth inhibition of M. tuberculosis H37Rv (R/I/S) ([1]; Example compound 0.5 μM + ethionamide 0.31 μg/ml): R
growth inhibition of M. tuberculosis H37Rv (R/I/S) ([1]; Example compound 0.5 μM + ethionamide 0.625 μg/ml): I
growth inhibition of M. tuberculosis H37Rv (R/I/S) ([1]; Example compound 0.5 μM + ethionamide 1.25 μg/ml): S
growth inhibition of M. tuberculosis H37Rv (R/I/S) ([1]; Example compound 0.5 μM + ethionamide 2.5 μg/ml): S
growth inhibition of M. tuberculosis H37Rv (R/I/S) ([1]; Example compound 0.5 μM + ethionamide 5 μg/ml): S
growth inhibition of M. tuberculosis H37Rv (R/I/S) ([1]; Example compound 0.5 μM, ethionamide 0 μg/ml): R
growth inhibition of M. tuberculosis H37Rv (R/I/S) ([1]; Example compound 1.5 μM + ethionamide 0.16 μg/ml): R
growth inhibition of M. tuberculosis H37Rv (R/I/S) ([1]; Example compound 1.5 μM + ethionamide 0.31 μg/ml): I
growth inhibition of M. tuberculosis H37Rv (R/I/S) ([1]; Example compound 1.5 μM + ethionamide 0.625 μg/ml): I
growth inhibition of M. tuberculosis H37Rv (R/I/S) ([1]; Example compound 1.5 μM + ethionamide 1.25 μg/ml): S
growth inhibition of M. tuberculosis H37Rv (R/I/S) ([1]; Example compound 1.5 μM + ethionamide 2.5 μg/ml): S
growth inhibition of M. tuberculosis H37Rv (R/I/S) ([1]; Example compound 1.5 μM + ethionamide 5 μg/ml): S
growth inhibition of M. tuberculosis H37Rv (R/I/S) ([1]; Example compound 1.5 μM, ethionamide 0 μg/ml): R
growth inhibition of M. tuberculosis H37Rv (R/I/S) ([1]; Example compound 4.5 μM + ethionamide 0.16 μg/ml): R
growth inhibition of M. tuberculosis H37Rv (R/I/S) ([1]; Example compound 4.5 μM + ethionamide 0.31 μg/ml): I
growth inhibition of M. tuberculosis H37Rv (R/I/S) ([1]; Example compound 4.5 μM + ethionamide 0.625 μg/ml): S
growth inhibition of M. tuberculosis H37Rv (R/I/S) ([1]; Example compound 4.5 μM + ethionamide 1.25 μg/ml): S
growth inhibition of M. tuberculosis H37Rv (R/I/S) ([1]; Example compound 4.5 μM + ethionamide 2.5 μg/ml): S
growth inhibition of M. tuberculosis H37Rv (R/I/S) ([1]; Example compound 4.5 μM + ethionamide 5 μg/ml): S
growth inhibition of M. tuberculosis H37Rv (R/I/S) ([1]; Example compound 4.5 μM, ethionamide 0 μg/ml): R
growth inhibition of M. tuberculosis H37Rv (R/I/S) ([1]; Example compound 13.5 μM + ethionamide 0.16 μg/ml): R
growth inhibition of M. tuberculosis H37Rv (R/I/S) ([1]; Example compound 13.5 μM + ethionamide 0.31 μg/ml): I
growth inhibition of M. tuberculosis H37Rv (R/I/S) ([1]; Example compound 13.5 μM + ethionamide 0.625 μg/ml): S
growth inhibition of M. tuberculosis H37Rv (R/I/S) ([1]; Example compound 13.5 μM + ethionamide 1.25 μg/ml): S
growth inhibition of M. tuberculosis H37Rv (R/I/S) ([1]; Example compound 13.5 μM + ethionamide 2.5 μg/ml): S
growth inhibition of M. tuberculosis H37Rv (R/I/S) ([1]; Example compound 13.5 μM + ethionamide 5 μg/ml): S
growth inhibition of M. tuberculosis H37Rv (R/I/S) ([1]; Example compound 13.5 μM, ethionamide 0 μg/ml): R
growth inhibition of M. tuberculosis H37Rv (R/I/S) ([1]; Example compound 40.5 μM + ethionamide 0.16 μg/ml): R
growth inhibition of M. tuberculosis H37Rv (R/I/S) ([1]; Example compound 40.5 μM + ethionamide 0.31 μg/ml): I
growth inhibition of M. tuberculosis H37Rv (R/I/S) ([1]; Example compound 40.5 μM + ethionamide 0.625 μg/ml): S
growth inhibition of M. tuberculosis H37Rv (R/I/S) ([1]; Example compound 40.5 μM + ethionamide 1.25 μg/ml): S
growth inhibition of M. tuberculosis H37Rv (R/I/S) ([1]; Example compound 40.5 μM + ethionamide 2.5 μg/ml): S
growth inhibition of M. tuberculosis H37Rv (R/I/S) ([1]; Example compound 40.5 μM + ethionamide 5 μg/ml): S
growth inhibition of M. tuberculosis H37Rv (R/I/S) ([1]; Example compound 40.5 μM, ethionamide 0 μg/ml): R
growth inhibitory effect of compound alone on M. tuberculosis H37Rv ([1]; compound alone, without ethionamide): do not show any growth inhibitory effect
growth of M. tuberculosis H37Rv in the presence of sub-inhibitory ethionamide concentrations ([1]; ethionamide 0.16 and 5 μg/ml, 0.5 to 40.5 μMol compound): dose-dependently inhibited
remaining activity at 0.5 µM (EthR-VP16): 10.3 ± 1.26%
remaining activity at 1.5 µM (EthR-VP16): 10.3 ± 0.43%
remaining activity at 3 µM (EthR-VP16): 7.81 ± 0.95%
remaining activity at 6 µM (EthR-VP16): 6.01 ± 1.93%
remaining activity at 15 µM (EthR-VP16): 3.21 ± 1.35%
remaining activity at 30 µM (EthR-VP16): 0.77 ± 0.32%
remaining activity at 60 µM (EthR-VP16): 0.86 ± 0.36%
remaining activity at 300 µM (EthR-VP16): 0.89 ± 0.37%
